From ChEMBL document CHEMBL1150150, “New dammarane and malabaricane triterpenes from Caloncoba echinata” (J Nat Prod, 2002)

Legend:
[1] = Toxicity in human erythrocytes assessed as transformation of erythrocytes to stomatocytes at 0.625 after 48 hrs by Giemsa staining; type: cell-based; settings: erythrocyte
[2] = Effect on human erythrocyte morphology assessed as transformation of erythrocytes to stomatocytes S1 type at 25 to 100 ug/mL after 48 hrs by Giemsa staining; type: ADME, cell-based
[3] = Effect on human erythrocyte morphology assessed as transformation of erythrocytes to stomatocytes S2 type at 25 to 100 ug/mL after 48 hrs by Giemsa staining; type: ADME, cell-based
Plasmodium falciparum = assay: Antiplasmodial activity against chloroquine-sensitive Plasmodium falciparum 3D7 after 48 hrs by [3H]phenylalanine uptake
[4] = Toxicity in human erythrocyte assessed as lysis at 25 to 100 ug/mL after 48 hrs by Giemsa staining; type: cell-based
[5] = Effect on morphology of human erythrocytes assessed as occurrence of normal discocytes at 6.25 ug/mL after 48 hrs by Giemsa staining; type: ADME, cell-based; settings: erythrocyte
[6] = Effect on human erythrocyte morphology assessed as transformation of erythrocytes to spherostomatocytes at 25 to 100 ug/mL after 48 hrs by Giemsa staining; type: ADME, cell-based
[7] = Effect on morphology of human erythrocytes assessed as transformation of erythrocytes to stomatocytes S1 type at 6.25 ug/mL after 48 hrs by Giemsa staining; type: ADME, cell-based; settings: erythrocyte
[8] = Effect on human erythrocyte morphology assessed as transformation of erythrocytes to stomatocytes after 48 hrs by Giemsa staining; type: ADME, cell-based
[9] = Effect on human erythrocyte morphology assessed as ghost cell formation at 50 to 100 ug/mL after 48 hrs by Giemsa staining; type: ADME, cell-based
[10] = Effect on human erythrocyte morphology assessed as transformation of erythrocytes to stomatocytes S1 type at 12.5 ug/mL after 48 hrs by Giemsa staining; type: ADME, cell-based
[11] = Effect on morphology of human erythrocytes assessed as transformation of erythrocytes to stomatocytes S2 type at 6.25 ug/mL after 48 hrs by Giemsa staining; type: ADME, cell-based; settings: erythrocyte
[12] = Toxicity in human erythrocytes assessed as lysis at 12.5 ug/mL after 48 hrs by Giemsa staining; type: cell-based; settings: erythrocyte

| IC50 (Plasmodium falciparum) [µg/mL] | Structure (SMILES) | Activity [1] | Activity [2] | Activity [3] | Activity [4] | Activity [5] | Activity [6] | Activity [7] | Activity [8] | Activity [9] | Activity [10] | Activity [11] | Activity [12] |
| --- | --- | --- | --- | --- | --- | --- | --- | --- | --- | --- | --- | --- | --- |
| < 12 | C=C(CC[C@H](O)[C@@]1(C)CC[C@H](C(C)(C)O)O1)[C@H]1CC[C@H]2[C@@]1(C)CC[C@H]1C(C)(C)C(=O)CC[C@]21C | Non-toxic | Toxic | Toxic | Toxic | Non-toxic | Toxic | Toxic | Toxic | Toxic | Toxic | – | – |
| < 12 | C=C(CC[C@@H](O)[C@]1(C)CC[C@H](C(C)(C)O)O1)[C@H]1CC[C@H]2[C@@]1(C)CC[C@H]1C(C)(C)C(=O)CC[C@]21C | Non-toxic | Toxic | Toxic | Toxic | Non-toxic | Toxic | Toxic | Toxic | Toxic | Toxic | – | – |
| < 12 | CC(C)=CCC[C@@](C)(O)[C@H]1CC[C@]2(C)[C@@H]1C[C@@H](O)[C@@H]1[C@@]3(C)CCC(=O)C(C)(C)[C@@H]3CC[C@]12C | Non-toxic | Toxic | Toxic | Toxic | Non-toxic | Toxic | Toxic | Toxic | Toxic | Toxic | Toxic | Non-toxic |
